Laboratory results reported in US20250213555A1, “SUBSTITUTED TETRAHYDROFURAN ANALOGS AS MODULATORS OF SODIUM CHANNELS” (VERTEX PHARMACEUTICALS INCORPORATED, priority 2021, published 2025).
Where two headings read alike, the source gives them in different places. Each block holds one molecule with its values, some of them ahead of it.

Molecular target: human Nav 1.8 (Homo sapiens, UniProt Q9Y5Y9)
Assay: E-VIPR assay detecting and measuring Nav inhibition properties
Assay type: cell-based
Conditions: HEK cells expressing a truncated form of human Nav 1.8, read-out: measured IC50 value in the E-VIPR Assay
Excerpt: E-VIPR Assay Detecting and Measuring Nav Inhibition Properties
Sodium ion channels are voltage-dependent proteins that can be activated by inducing membrane voltage changes by applying electric fields. The electrical stimulation instrument and methods of use, referred to as E-VIPR, are described in International Publication No. WO 2002/008748 A3 and C.-J. Huang et al. Characterization of voltage-gated sodium channel blockers by electrical stimulation and fluorescence detection of membrane potential, 24 Nature Biotech. 439-46 (2006), both of which are incorporated by reference in their entirety. The instrument comprises a microtiter plate handler, an optical system for exciting the coumarin dye while simultaneously recording the coumarin and oxonol emissions, a waveform generator, a current- or voltage-controlled amplifier, and parallel electrode pairs that are inserted into assay plate wells. Under integrated computer control, this instrument passes user-programmed electrical stimulus protocols to cells within the wells of the microtiter plate.
16-20 hours prior to running the assay on E-VIPR, HEK cells expressing a truncated form of human Nav 1.8 with full channel activity were seeded into microtiter 384-well plates, pre-coated with matrigel, at a density of 25,000 cells per well. 2.5-5% KIR2.1 Bacmam virus was added to the final cell suspension before seeding into cell plates. HEK cells were grown in Dulbecco's Modified Eagle's Medium (DMEM) supplemented with 10% FBS (Fetal Bovine Serum, qualified; Sigma #F4135), 1% NEAA (Non-Essential Amino Acids, Gibco #11140), 1% HEPES (Gibco #15630), 1% Pen-Strep (Penicillin-Streptomycin; Gibco #15140) and 5 μg/ml Blasticidin (Gibco #R^210-01). Cells were expanded in vented cap cell culture flasks, with 90-95% humidity and 5% CO2.
100 mg/mL Pluronic F-127 (Sigma #P2443), in dry DMSO
Compound Plates: Corning 384-well Polypropylene Round Bottom #3656
Cell Plates: 384-well tissue culture treated plates (Greiner #781091-2B)
2.5-5% KIR 2.1 Bacmam virus (produced in-house), prepared as described in Section 3.3 of J. A. Fornwald et al., Gene Expression in Mammalian Cells Using BacMam, a Modified Baculovirus System, 1350 Methods in Molecular Biology 95-116 (2016), the entire contents of which are incorporated by reference. The concentration used can be dependent on viral titer of each batch.
5 mM DiSBAC6(3), a voltage sensitive oxonol acceptor (CAS number 169211-44-3; 5-[3-(1,3-dihexylhexahydro-4,6-dioxo-2-thioxo-5-pyrimidinyl)-2-propen-1-ylidene]-1,3-dihexyldihydro-2-thioxo-4,6 (1H,5H)-pyrimidinedione), in dry DMSO. The preparation of DiSBAC6(3) is analogous to that of DiSBAC4(3) as described in Voltage Sensing by Fluorescence Resonance Energy Transfer in Single Cells, Gonzalez, J. E. and Tsien, R. Y. (1995) Biophys. J. 69, 1272-1280.
5 mM CC2-DMPE, a commercially available membrane-bound coumarin phospholipid FRET donor (ThermoFisher Scientific catalog number K1017, CAS number 393782-57-5; tetradecanoic acid, 1,1′-[(1R)-1-[8-(6-chloro-7-hydroxy-2-oxo-2H-1-benzopyran-3-yl)-3-hydroxy-3-oxido-8-oxo-2,4-dioxa-7-aza-3-phosphaoct-1-yl]-1,2-ethanediyl] ester) was prepared in dry DMSO. See also, Improved indicators of cell membrane potential that use fluorescence resonance energy transfer, Gonzalez, J. E. and Tsien, R. Y. (1997) Chem. Biol. 4, 269-277.
Voltage Assay Background Suppression Compound (VABSC-1) is prepared in H2O (89-363 mM, range used to maintain solubility)
Human Serum (HS, Millipore #S1P1-01KL, or Sigma SLBR5469V and SLBR5470V as a 50%/50% mixture, for 25% assay final concentration)
• Sodium Chloride 160 mM (9.35 g/L), Potassium Chloride, 4.5 mM (0.335 g/L), Glucose 10 mM (1.8 g/L), Magnesium Chloride (Anhydrous) 1 mM (0.095 g/L), Calcium Chloride 2 mM (0.222 g/L), HEPES 10 mM (2.38 g/L) in water. […]

[1] = compound numbers without "*" (not marked as run in the presence of human serum)

human Nav 1.8, sequence (Q9Y5Y9 126-399 limits assumed): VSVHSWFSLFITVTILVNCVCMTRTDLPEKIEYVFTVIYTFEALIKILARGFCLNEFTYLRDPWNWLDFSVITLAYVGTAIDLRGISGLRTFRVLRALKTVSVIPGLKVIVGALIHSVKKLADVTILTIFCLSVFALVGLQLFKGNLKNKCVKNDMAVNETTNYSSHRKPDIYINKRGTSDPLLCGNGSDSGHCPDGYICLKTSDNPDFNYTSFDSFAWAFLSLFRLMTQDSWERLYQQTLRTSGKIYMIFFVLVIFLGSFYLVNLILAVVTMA
human Nav 1.8, sequence (Q9Y5Y9 660-890 limits assumed): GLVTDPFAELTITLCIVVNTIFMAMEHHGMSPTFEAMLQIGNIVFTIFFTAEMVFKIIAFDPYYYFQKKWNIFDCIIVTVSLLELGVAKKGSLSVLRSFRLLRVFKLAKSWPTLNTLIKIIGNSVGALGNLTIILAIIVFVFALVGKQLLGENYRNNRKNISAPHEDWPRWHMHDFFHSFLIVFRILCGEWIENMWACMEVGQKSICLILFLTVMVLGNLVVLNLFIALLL
human Nav 1.8, sequence (Q9Y5Y9 1148-1722 limits assumed): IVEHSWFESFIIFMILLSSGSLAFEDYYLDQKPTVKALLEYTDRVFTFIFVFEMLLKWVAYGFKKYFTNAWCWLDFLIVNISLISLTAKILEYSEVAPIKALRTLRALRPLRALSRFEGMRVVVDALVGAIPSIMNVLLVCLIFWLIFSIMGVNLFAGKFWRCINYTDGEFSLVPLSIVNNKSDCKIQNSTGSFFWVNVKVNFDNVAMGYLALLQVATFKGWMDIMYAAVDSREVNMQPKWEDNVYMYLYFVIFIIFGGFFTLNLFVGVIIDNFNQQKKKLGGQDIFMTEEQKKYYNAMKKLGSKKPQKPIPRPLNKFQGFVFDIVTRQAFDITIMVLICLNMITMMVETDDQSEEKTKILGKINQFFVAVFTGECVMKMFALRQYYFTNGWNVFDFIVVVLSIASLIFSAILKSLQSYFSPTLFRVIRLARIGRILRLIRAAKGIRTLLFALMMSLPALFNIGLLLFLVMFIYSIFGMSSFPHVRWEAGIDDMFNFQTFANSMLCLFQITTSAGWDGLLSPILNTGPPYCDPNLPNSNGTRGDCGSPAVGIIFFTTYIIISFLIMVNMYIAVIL

SMILES: C[C@H]1[C@@H](c2ccc(F)c(F)c2OC2CC(O)C2)[C@H](C(=O)Nc2ccnc(C(N)=O)c2)O[C@@]1(C)C(F)(F)F (stereo partly drawn) [Compound 163, 4-((2R,3S,4S,5R)-3-(3,4-difluoro-2-(3-hydroxycyclobutoxy)phenyl)-4,5-dimethyl-5-(trifluoromethyl)tetrahydrofuran-2-carboxamido)picolinamide]
IC50 [1]: < 10 nM

SMILES: C[C@H]1[C@@H](c2ccc(F)c(F)c2OC2CC(F)(F)C2)[C@H](C(=O)Nc2ccnc(C(N)=O)c2)O[C@@]1(C)C(F)(F)F [Compound 173, 4-((2R,3S,4S,5R)-3-(2-(3,3-difluorocyclobutoxy)-3,4-difluorophenyl)-4,5-dimethyl-5-(trifluoromethyl)tetrahydrofuran-2-carboxamido)picolinamide]
IC50 [1]: < 10 nM

SMILES: C[C@H]1[C@@H](c2cccc(Cl)c2O[C@H]2C[C@@H](O)C2)[C@H](C(=O)Nc2ccnc(C(N)=O)c2)O[C@@]1(C)C(F)(F)F [Compound 213, 4-((2R,3S,4S,5R)-3-(3-chloro-2-((1s,3R)-3-hydroxycyclobutoxy)phenyl)-4,5-dimethyl-5-(trifluoromethyl)tetrahydrofuran-2-carboxamido) picolinamide]
IC50 [1]: < 10 nM

SMILES: CC(C)C(COc1c([C@H]2[C@H](C(=O)Nc3ccnc(C(N)=O)c3)O[C@@](C)(C(F)(F)F)[C@H]2C)ccc(F)c1F)=NO (single isomer, unassigned) [Compound 187, rel-4-((2R*,3S*,4S*,5R*)-3-(3,4-difluoro-2-(2-(hydroxyimino)-3-methylbutoxy)phenyl)-4,5-dimethyl-5-(trifluoromethyl)tetrahydrofuran-2-carboxamido)picolinamide]
IC50 [1]: < 10 nM

SMILES: Cc1c(F)ccc([C@H]2C[C@@](C)(C(F)(F)F)O[C@@H]2C(=O)Nc2ccnc(C(N)=O)c2)c1OCCO (single isomer, unassigned) [Compound 36]
IC50 (assay performed in the presence of human serum (compound numbers followed by "*")): ≥ 1000 nM

SMILES: C[C@H]1[C@@H](c2ccc(F)c(F)c2OCCN2C[C@H]3C[C@@H]2CO3)[C@H](C(=O)Nc2ccnc(C(N)=O)c2)O[C@@]1(C)C(F)(F)F (relative stereo) [Compound 47, rel-4-((2R*,3S*,4S*,5R*)-3-(2-(2-((1R,4R)-2-oxa-5-azabicyclo[2.2.1]heptan-5-yl)ethoxy)-3,4-difluorophenyl)-4,5-dimethyl-5-(trifluoromethyl)tetrahydrofuran-2-carboxamido)picolinamide]
IC50 [1]: 10 to 100 nM

SMILES: C[C@]1(C(F)(F)F)C[C@@H](c2ccc(OC(F)(F)F)cc2Cl)[C@H](C(=O)Nc2ccnc(C(N)=O)c2)O1 (stereo in doubt) [Compound 151, rel-4-((2R,3S,5R)-3-(2-chloro-4-(trifluoromethoxy)phenyl)-5-methyl-5-(trifluoromethyl)tetrahydrofuran-2-carboxamido) picolinamide]
IC50 [1]: 10 to 100 nM

SMILES: COc1c([C@H]2[C@H](C(=O)Nc3ccnc(C(=O)NC4CN(C)C4)c3)O[C@@](C)(C(F)(F)F)[C@H]2C)ccc(F)c1F [Compound 275, 4-((2R,3S,4S,5R)-3-(3,4-difluoro-2-methoxyphenyl)-4,5-dimethyl-5-(trifluoromethyl)tetrahydrofuran-2-carboxamido)-N-(1-methylazetidin-3-yl)picolinamide]
IC50 [1]: 10 to 100 nM

More lines, now with the values ahead:

IC50 [1]: < 10 nM
SMILES: COc1c([C@H]2[C@H](C(=O)Nc3ccnc(C(=O)N4CCNC(C)(C)C4)c3)O[C@@](C)(C(F)(F)F)[C@H]2C)ccc(F)c1F [Compound 241, (2R,3S,4S,5R)-3-(3,4-difluoro-2-methoxyphenyl)-N-(2-(3,3-dimethylpiperazine-1-carbonyl)pyridin-4-yl)-4,5-dimethyl-5-(trifluoromethyl)tetrahydrofuran-2-carboxamide]

IC50 [1]: < 10 nM
SMILES: C=C(COc1c([C@H]2[C@H](C(=O)Nc3ccnc(C(N)=O)c3)O[C@@](C)(C(F)(F)F)[C@H]2C)ccc(F)c1F)C(F)(F)F [Compound 75, 4-((2R,3S,4S,5R)-3-(3,4-difluoro-2-((2-(trifluoromethyl)allyl)oxy)phenyl)-4,5-dimethyl-5-(trifluoromethyl)tetrahydrofuran-2-carboxamido)picolinamide]

IC50 [1]: 10 to 100 nM
SMILES: COc1c([C@H]2[C@H](C(=O)Nc3ccnc(C(=O)N4C[C@H](F)[C@@H](N(C)C)C4)c3)O[C@@](C)(C(F)(F)F)[C@H]2C)ccc(F)c1F [Compound 301, (2R,3S,4S,5R)-3-(3,4-difluoro-2-methoxyphenyl)-N-(2-((3S,4S)-3-(dimethylamino)-4-fluoropyrrolidine-1-carbonyl)pyridin-4-yl)-4,5-dimethyl-5-(trifluoromethyl)tetrahydrofuran-2-carboxamide]

IC50 [1]: 10 to 100 nM
SMILES: C[C@H]1[C@@H](c2ccc(F)c(F)c2OCCN[C@H]2CCOC2)[C@H](C(=O)Nc2ccnc(C(N)=O)c2)O[C@@]1(C)C(F)(F)F [Compound 117, 4-((2R,3S,4S,5R)-3-(3,4-difluoro-2-(2-(((S)-tetrahydrofuran-3-yl)amino)ethoxy)phenyl)-4,5-dimethyl-5-(trifluoromethyl)tetrahydrofuran-2-carboxamido)picolinamide]

IC50 [1]: 10 to 100 nM
SMILES: COc1c([C@H]2[C@H](C(=O)Nc3ccnc(C(=O)O)c3)O[C@@](C)(C(F)(F)F)[C@H]2C)ccc(F)c1F [Compound 214, 4-((2R,3S,4S,5R)-3-(3,4-difluoro-2-methoxyphenyl)-4,5-dimethyl-5-(trifluoromethyl)tetrahydrofuran-2-carboxamido)picolinic acid]

IC50 [1]: 10 to 100 nM
SMILES: C[C@H]1[C@@H](c2ccc(F)c(F)c2OCCc2nccn2C)[C@H](C(=O)Nc2ccnc(C(N)=O)c2)O[C@@]1(C)C(F)(F)F [Compound 87, 4-((2R,3S,4S,5R)-3-(3,4-difluoro-2-(2-(1-methyl-1H-imidazol-2-yl)ethoxy)phenyl)-4,5-dimethyl-5-(trifluoromethyl)tetrahydrofuran-2-carboxamido)picolinamide]

IC50 [1]: < 10 nM
SMILES: C[C@H]1[C@@H](c2ccc(F)c(F)c2O[C@H]2C[C@@H](O)C2)[C@H](C(=O)Nc2ccc(F)c(C(N)=O)c2)O[C@@]1(C)C(F)(F)F [Compound 202]

IC50 [1]: 10 to 100 nM
SMILES: C[C@H]1[C@@H](c2ccc(F)c(F)c2OCCN2CCC2)[C@H](C(=O)Nc2ccnc(C(N)=O)c2)O[C@@]1(C)C(F)(F)F [Compound 54, 4-((2R,3S,4S,5R)-3-(2-(2-(azetidin-1-yl)ethoxy)-3,4-difluorophenyl)-4,5-dimethyl-5-(trifluoromethyl)tetrahydrofuran-2-carboxamido)picolinamide]

IC50 [1]: 10 to 100 nM
SMILES: CNC(=O)c1cc(NC(=O)[C@@H]2O[C@@](C)(C(F)(F)F)[C@@H](C)[C@H]2c2ccc(F)c(F)c2O[C@H]2C[C@@H](O)C2)ccn1 [Compound 201]

IC50 [1]: < 10 nM
SMILES: COc1c([C@H]2[C@H](C(=O)Nc3ccnc(C(N)=O)c3)O[C@@](C)(C(F)(F)F)[C@H]2C)ccc(OCC2CC2)c1F (single isomer, unassigned) [Compound 144]

IC50 [1]: < 10 nM
SMILES: C[C@H]1[C@@H](c2ccc(F)c(F)c2OCC2(CO)CC2)[C@H](C(=O)Nc2ccnc(C(N)=O)c2)O[C@@]1(C)C(F)(F)F [Compound 95, 4-((2R,3S,4S,5R)-3-(3,4-difluoro-2-((1-(hydroxymethyl)cyclopropyl)methoxy)phenyl)-4,5-dimethyl-5-(trifluoromethyl)tetrahydrofuran-2-carboxamido)picolinamide]
